Reference: ChEMBL document CHEMBL1201862, “PubChem BioAssay data set” (2004)
Calls of active or inactive are those of the source.

Assays:
Aspartyl aminopeptidase = Aspartyl aminopeptidase (Plasmodium falciparum 3D7, UniProt Q8I2J3)
Procathepsin L = Procathepsin L (Homo sapiens, UniProt P07711)
[1] = target: T1, Rac GTPase-activating protein 1 (Homo sapiens, UniProt Q9H0H5); assay: MgcRacGAP GTPase-activating activity inhibitors, confirmation, biochemical, ADP Hunter fluorescence, primary and confirmatory (AID 624330); type: functional
T1 sequence (Q9H0H5 whole entry): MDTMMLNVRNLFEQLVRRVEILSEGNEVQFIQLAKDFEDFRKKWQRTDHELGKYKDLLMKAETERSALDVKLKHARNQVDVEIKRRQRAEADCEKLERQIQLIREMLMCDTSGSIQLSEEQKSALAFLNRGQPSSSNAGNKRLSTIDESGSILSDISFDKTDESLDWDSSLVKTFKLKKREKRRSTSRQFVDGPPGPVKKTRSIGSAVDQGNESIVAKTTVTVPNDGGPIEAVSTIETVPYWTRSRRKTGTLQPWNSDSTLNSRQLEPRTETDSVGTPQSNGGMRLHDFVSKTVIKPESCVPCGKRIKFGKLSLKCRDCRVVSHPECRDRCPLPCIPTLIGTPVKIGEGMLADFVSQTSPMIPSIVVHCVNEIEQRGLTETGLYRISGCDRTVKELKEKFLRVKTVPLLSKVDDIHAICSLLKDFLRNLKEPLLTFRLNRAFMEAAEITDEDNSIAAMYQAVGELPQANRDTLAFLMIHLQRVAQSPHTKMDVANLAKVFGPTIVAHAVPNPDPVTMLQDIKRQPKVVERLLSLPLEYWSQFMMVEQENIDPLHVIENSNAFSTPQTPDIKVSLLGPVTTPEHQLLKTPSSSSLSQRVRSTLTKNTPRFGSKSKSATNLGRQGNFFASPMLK

[2] = target: T2, Alkaline phosphatase, tissue-nonspecific isozyme (Homo sapiens, UniProt P05186)
T2 sequence (P05186 whole entry): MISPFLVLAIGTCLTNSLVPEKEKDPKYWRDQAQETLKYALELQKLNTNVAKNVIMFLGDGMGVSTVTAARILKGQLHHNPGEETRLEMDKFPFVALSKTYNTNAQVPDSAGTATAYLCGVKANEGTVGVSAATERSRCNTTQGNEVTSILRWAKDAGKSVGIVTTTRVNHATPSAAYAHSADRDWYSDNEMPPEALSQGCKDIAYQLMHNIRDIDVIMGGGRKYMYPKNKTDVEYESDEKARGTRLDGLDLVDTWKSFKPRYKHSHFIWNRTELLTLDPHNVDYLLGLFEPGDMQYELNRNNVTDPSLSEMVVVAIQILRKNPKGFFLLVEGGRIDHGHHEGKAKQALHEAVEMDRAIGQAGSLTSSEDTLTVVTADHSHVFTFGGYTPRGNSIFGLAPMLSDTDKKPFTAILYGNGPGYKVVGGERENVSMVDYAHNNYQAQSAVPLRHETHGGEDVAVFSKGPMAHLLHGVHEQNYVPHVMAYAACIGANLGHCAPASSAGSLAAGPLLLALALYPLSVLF

[3] = target: Eukaryotic translation initiation factor 4H (Homo sapiens, UniProt Q15056); assay: human eIF4H binding inhibitors, primary screen, translation initiation inhibitor project, biochemical, uHTS, fluorescence polarization (AID 2012)
[4] = target: Polyadenylate-binding protein 1 (Homo sapiens, UniProt P11940); assay: PABP poly(A) RNA binding inhibitors, primary screen, biochemical, fluorescence polarization, uHTS (AID 2014)
Chain of Polyadenylate-binding protein 1 (P11940 whole entry): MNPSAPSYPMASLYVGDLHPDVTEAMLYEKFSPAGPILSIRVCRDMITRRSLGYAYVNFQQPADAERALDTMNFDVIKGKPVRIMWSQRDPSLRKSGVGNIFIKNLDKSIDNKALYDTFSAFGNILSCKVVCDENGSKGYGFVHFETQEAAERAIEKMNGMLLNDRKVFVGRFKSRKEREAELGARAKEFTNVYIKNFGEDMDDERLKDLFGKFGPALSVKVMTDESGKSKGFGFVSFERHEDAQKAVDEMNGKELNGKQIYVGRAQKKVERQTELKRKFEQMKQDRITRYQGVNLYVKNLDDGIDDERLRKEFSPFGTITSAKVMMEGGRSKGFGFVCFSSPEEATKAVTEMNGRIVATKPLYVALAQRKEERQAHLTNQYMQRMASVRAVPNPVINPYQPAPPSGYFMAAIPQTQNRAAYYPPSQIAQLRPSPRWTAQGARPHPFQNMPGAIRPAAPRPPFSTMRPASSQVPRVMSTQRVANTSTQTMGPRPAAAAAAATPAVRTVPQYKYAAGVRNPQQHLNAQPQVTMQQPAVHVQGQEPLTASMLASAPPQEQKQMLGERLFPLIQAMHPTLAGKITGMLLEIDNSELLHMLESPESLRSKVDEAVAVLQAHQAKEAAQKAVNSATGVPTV

[5] = target: Acyl-homoserine lactone acylase PvdQ (Pseudomonas aeruginosa (strain LESB58), UniProt Q9I194); assay: P. aeruginosa PvdQ acylase inhibitors, dose response, biochemical, fluorescence, plate reader and imaging, cherry-picks (AID 493231)
Chain of Acyl-homoserine lactone acylase PvdQ (Q9I194 24-193 limits assumed): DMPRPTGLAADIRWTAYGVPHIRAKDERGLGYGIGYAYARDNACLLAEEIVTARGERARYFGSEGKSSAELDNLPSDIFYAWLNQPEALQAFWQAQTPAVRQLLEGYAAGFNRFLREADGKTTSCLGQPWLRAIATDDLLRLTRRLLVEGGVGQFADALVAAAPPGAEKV
Chain of Acyl-homoserine lactone acylase PvdQ (Q9I194 217-762 limits assumed): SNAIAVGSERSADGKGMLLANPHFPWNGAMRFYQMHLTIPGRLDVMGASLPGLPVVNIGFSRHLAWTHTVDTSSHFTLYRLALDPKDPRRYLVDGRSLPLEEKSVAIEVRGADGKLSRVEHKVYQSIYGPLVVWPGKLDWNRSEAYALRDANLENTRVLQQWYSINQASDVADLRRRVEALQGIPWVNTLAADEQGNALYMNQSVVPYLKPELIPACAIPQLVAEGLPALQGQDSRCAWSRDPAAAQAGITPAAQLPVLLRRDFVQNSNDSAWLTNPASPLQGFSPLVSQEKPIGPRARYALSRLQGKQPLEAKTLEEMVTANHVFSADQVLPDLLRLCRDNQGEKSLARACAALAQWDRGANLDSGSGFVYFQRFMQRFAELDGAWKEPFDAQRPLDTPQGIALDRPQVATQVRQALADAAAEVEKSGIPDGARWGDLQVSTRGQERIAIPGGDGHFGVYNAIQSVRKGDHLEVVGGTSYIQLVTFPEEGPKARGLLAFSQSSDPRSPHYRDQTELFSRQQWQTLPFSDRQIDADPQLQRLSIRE

[6] = inhibitors of firefly luciferase expression or activity, dose response, H4 neuroglioma cells, luminescence (AID 1990); type: functional, cell-based
[7] = luciferase reporter signal reduction – luminescence, H4-C neuroglioblastoma cells, dose response (AID 2458); type: functional, cell-based;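 note: H4 neuroglioblastoma cells stably carrying a luciferase reporter gene fusion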
cells = type: functional, cell-based
[8] = Luminescence Cell-Based Dose Response HTS to Identify Inhibitors of 5'UTR Stem-Loop Driven Prion Protein mRNA Translation in H4 Neuroglioblastoma Cells. [Related pubchem assays: 1827 (Project Summary), 1813 (Primary HTS)]; type: functional
[9] = inhibitors of SNCA 5'UTR-driven reporter translation, confirmation, H4 neuroglioma cells, luminescence (AID 1988); type: functional, cell-based
[10] = inhibitors of SNCA 5'UTR-driven translation, confirmation, luminescence, H4 neuroglioblastoma cells, dose confirmation (AID 2454); type: functional, cell-based;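 note: H4 neuroglioblastoma cells carrying an alpha-synuclein 5'UTR luciferase reporter; potency for inhibition of the luciferase signal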
Jurkat = assay: antigen receptor-induced NF-kB inhibitors, dose response, Jurkat, luciferase reporter, luminescence, B- and T-cell (AID 489004); type: functional, cell-based; details: Homo sapiens;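 note: NF-kB luciferase reporter Jurkat cells stimulated with PMA plus ionomycin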
[11] = cytotoxicity in HEK-293T NF-kB-Luc cells, dose response, cytotoxicity control for B/T-cell NF-kB inhibitor project, cell-based, uHTS hits (AID 489019); type: functional;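 note: IC50 reflects cytotoxicity as loss of cell viability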

Chain of Procathepsin L (P07711 whole entry): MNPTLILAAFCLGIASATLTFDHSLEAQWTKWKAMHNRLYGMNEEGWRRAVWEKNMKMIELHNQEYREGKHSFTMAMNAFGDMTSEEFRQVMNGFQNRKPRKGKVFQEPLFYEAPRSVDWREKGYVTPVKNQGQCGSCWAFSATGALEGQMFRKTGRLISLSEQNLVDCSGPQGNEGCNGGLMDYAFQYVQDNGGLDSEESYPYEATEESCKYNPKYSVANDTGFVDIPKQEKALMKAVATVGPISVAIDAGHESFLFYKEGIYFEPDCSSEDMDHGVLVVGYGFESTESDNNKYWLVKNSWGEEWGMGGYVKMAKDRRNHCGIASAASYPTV
Chain of Aspartyl aminopeptidase (Q8I2J3 whole entry): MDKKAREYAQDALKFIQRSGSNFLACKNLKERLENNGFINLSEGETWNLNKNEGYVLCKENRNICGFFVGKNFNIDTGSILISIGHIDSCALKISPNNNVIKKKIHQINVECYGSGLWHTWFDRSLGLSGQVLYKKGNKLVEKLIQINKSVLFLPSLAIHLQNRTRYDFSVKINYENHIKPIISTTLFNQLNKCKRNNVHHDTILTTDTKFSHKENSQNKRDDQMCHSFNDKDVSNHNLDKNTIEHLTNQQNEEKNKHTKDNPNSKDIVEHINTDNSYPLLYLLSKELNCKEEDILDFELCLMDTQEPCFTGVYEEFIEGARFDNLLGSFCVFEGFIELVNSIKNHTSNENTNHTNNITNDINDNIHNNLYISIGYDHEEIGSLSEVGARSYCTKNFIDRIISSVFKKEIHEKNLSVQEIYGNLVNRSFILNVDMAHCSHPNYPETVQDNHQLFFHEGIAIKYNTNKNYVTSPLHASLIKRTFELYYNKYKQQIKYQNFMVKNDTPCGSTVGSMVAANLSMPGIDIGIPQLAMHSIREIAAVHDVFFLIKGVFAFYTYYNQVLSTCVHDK

Cc1cc(O)nc2c(N=Nc3ccc(O)cc3)c(N)nn12
IC50 (Aspartyl aminopeptidase): 1510 nM (active)
IC50 (Procathepsin L): > 59600 nM (not active)
IC50 [1]: 12100 nM (active)

CCOC(=O)CSc1nc2ccccc2c(=O)n1CCC(=O)NCCc1ccc(OC)c(OC)c1
EC50 [2]: > 100000 nM (not active)

Cc1ccccc1/C=C/c1cccc[n+]1C
IC50 [3]: > 100000 nM (inactive)
IC50 [4]: 7430 nM (active)

N#Cc1cc([N+](=O)[O-])ccc1N1CCCC1
AC50 [5]: 3790 nM (active)

CC1CCc2c(sc(NC(=O)CSc3nc[nH]n3)c2C#N)C1 (stereo not given)
EC50 [6]: < 100 nM (active)
EC50 [7]: 232 nM (active)
EC50 (cells): 337 nM (active)
EC50 [8]: < 100 nM (active)
EC50 [9]: < 100 nM (active)
EC50 [10]: 323 nM (active)
IC50 (Jurkat): 520 nM (active)
IC50 [11]: > 80000 nM (inactive)
